Source: patent US20220098197A1, “SALTS OF HETEROCYCLIC COMPOUND AND USE THEREOF” (priority 2019, published 2022)

How the values were obtained:
RAW264.7 macrophages [1] = test: In vitro ELISA assay, LPS- or PGD2-stimulated RAW264.7; assay type: cell-based, mouse; details: CT-NA 10 and 100 μM, dose-dependent
Description: (§1) For ELISA and RT-PCR, RAW 264.7 macrophages were acclimated to two 12-well plates at 70-80% confluence. Thereafter, the medium in the 12-well plate was replaced with serum-free RPMI-1640 medium for 10-12 hrs and then exposed to CT-NA (10 and 100 μM) for 1 hour. One hour later, one 12-well plate was treated with LPS (100 ng/ml) for 24 hrs, and the other was treated with PGD2 (10 μM) for 24 hrs. After the treatment, the supernatant of the treated cells was collected to measure the protein levels of TNF-α, IL-1β, IL-6, and KC using ELISA kits according to the method of the instructions. Subsequently, RNA samples from each treated plate were extracted and reverse-transcripted into cDNA with HiScript5xQRTSuperMix, and then subjected to RT-PCR using BioRad CFX96 Touch™ real-time PCR detection system (San Diego, Calif.). Similarly, total RNAs extracted from treated isolated peritoneal macrophages were subjected to analyze the mRNA levels of IL-10, TNF-α, IL-6 and KC. The primers used in the RT-PCR reaction were shown in Table 2. β-actin was used as an internal control. The RT-PCR reactions were triplicated and the relative expression of target mRNA was normalized by the respective β-actin.

LPS-induced ALI mice = test: LPS-induced ALI model: histological examination (H&E); assay type: in vivo, Balb/c mice
Description: Specific pathogen-free (SPF) Balb/c mice (♂/♀; 20-26 g; 8 weeks old) were purchased from Shanghai SIPPR-BK Experimental Animal Co., Ltd. Mice were kept in an isolated ventilated cage in an environment of 40-60% humidity, 24±2° C., and 12 hrs/12 hrs dark-light cycle, and had free access to food and water. The method for preparing the LPS-induced ALI model was simply described as follows. The mice were randomly divided into a control group (12 mice) and an LPS group (48 mice). The LPS group (48 mice) was further divided into four subgroups (12 mice in each subgroup). The unanaesthetized mice in the four subgroups of LPS were intragastrically administered with normal saline (NS), CT-NA at 10 mg/kg or 30 mg/kg, and Dex at 1 mg/kg, respectively. […] 24 hrs after LPS challenge, the oxygen saturation (SO2) of all mice was measured by a Moor VMS-OXY™ instrument which measured SO2 (%) in the microcirculation at the wavelength range of 500 to 650 nm. […]
The lower lobe of the left lung of each mouse was inflated with neutral buffered 10% formalin instilled at room temperature under constant pressure of 22 to 25 cm H2O for 48 hrs. […] Pulmonary edema, hemorrhage, alveolar wall thickening and infiltration of neutrophils and inflammatory cells were counted and scored to evaluate the severity of lung injury. […] The total lung injury score was expressed as the sum of the four criteria. […]

CS-induced ALI mice = test: CS-induced lung injury model: pulmonary histopathology (H&E); assay type: in vivo, Balb/c mice
Description: Model preparation: The mice were randomly divided into 5 groups (12 mice in each group), which were the control group (the mice were exposed to fresh air), the saline group (the mice were exposed to cigarette smoke), dexamethasone (Dex) group (1 mg/kg) (the mice were exposed to cigarette smoke), CT-NA 10 mg/kg group and CT-NA 30 mg/kg group (the mice were exposed to cigarette smoke). According to the grouping, the mice were intragastrically administered saline, Dex and CT-NA, respectively. Thereafter, the mice were exposed to fresh air or cigarette smoke generated from 3R4F research-grade cigarettes (containing about 600 mg TPM/m^3 and 29.9 mg nicotine/m^3) in a cuboid plastic box (65×50x×45 cm). Ten cigarettes were burned every day for seven days. After one cigarette was burned, the next cigarette was ignited. The daily body weight and general condition of the mice were checked. 24 hrs after the last exposure to the cigarette smoke, the partial pressure of oxygen (PO2) of all mice was measured by the Moor VMS-OXY™ measuring instrument, which was used to measure the oxygenated/deoxygenated hemoglobin concentration and oxygen saturation (percentage) in the microcirculation at the wavelength range of 500 to 650 nm. Then, all mice were euthanized to collect bronchoalveolar lavage fluid (BALF) for measuring the total number of inflammatory cells, cytokine levels and albumin concentration. […]

RAW264.7 macrophages [2] = test: RT-PCR analysis, LPS- or PGD2-stimulated RAW264.7; assay type: cell-based, mouse; details: CT-NA 10 and 100 μM, P<0.05 or P<0.01
Description: as §1

SMILES: CN([C@@H]1CCc2c(CC(=O)[O-])c3cccnc3n2C1)S(=O)(=O)c1ccc(F)cc1.[Na+] [Sodium salt hydrate]
- protein expression of IL-1β, TNF-α, IL-6 and KC in response to LPS (RAW264.7 macrophages [1]; LPS (100 ng/ml) 24 hrs): inhibited
- protein expression of IL-1β, TNF-α, IL-6 and KC in response to PGD2 (RAW264.7 macrophages [1]; PGD2 (10 μM) 24 hrs): inhibited
- pathological scores (LPS-induced ALI mice; CT-NA 10 mg/kg (P<0.05) and 30 mg/kg (P<0.01), Dex 1 mg/kg (P<0.01)): considerably reduced
- LPS-induced pulmonary histopathological changes (LPS-induced ALI mice; CT-NA 10 or 30 mg/kg (dose dependence) or Dex 1 mg/kg, H&E): significant reduction
- mean pathological scores (CS-induced ALI mice; CT-NA 10 and 30 mg/kg, Dex 1 mg/kg, 5-point scoring, dose-dependent, p<0.01): considerably reduced
- CS-induced pulmonary histopathological changes (CS-induced ALI mice; pretreatment with CT-NA 10 and 30 mg/kg or Dex 1 mg/kg, H&E): strikingly improved
- mRNA expressions of IL-1β, TNF-α, IL-6 and KC, LPS-stimulated (RAW264.7 macrophages [2]; LPS, dose-dependent): reduced
- mRNA expressions of IL-1β, TNF-α, IL-6 and KC, PGD2-stimulated (RAW264.7 macrophages [2]; PGD2, dose-dependent): reduced
